Assay results taken from patent US10954258B2, “STAT3 dimerization inhibitors” (H. LEE MOFFITT CANCER CENTER AND RESEARCH INSTITUTE, INC., priority 2012, dated 2021).

Assays:
Format in all cases: cell-based, human
[1] = tested on: P-STAT3, P-Erk, P-Akt, Bcl-xL, Survivin, MMP9 and Cyclin D1 in MDA-MB-468 cells; test: western immunoblotting of P-STAT3, P-Akt, P-Erk and STAT3 target genes; conditions: 18 hours
Experimental: MDA-MB-468 cells were treated with vehicle (DMSO), S3I-1757 at 50 μM, 100 μM and 200 μM, and S3I-1756 at 200 μM for 18 hours. Cells were then lysed with RIPA buffer (20 mM Tris-HCl (pH 7.4), 5 mM EDTA, 10 mM Na4P2O7, 100 mM NaF, 2 mM Na3VO4, 1% NP-40.1 mM PMSF and 10 mg/ml aprotinin). The cell lysates were denatured by boiling with 5×SDS-PAGE sample buffer for 5 minutes and run on SDS-PAGE gel. The proteins were then transferred to membranes that were blocked with 5% non-fat milk in Tris Buffer Saline with 0.1% Tween-20 (TBST) buffer for 30 minutes at room temperature, and incubated with primary antibodies (pY705STAT3, pAKT, AKT, pERK1/2, MMP9, and CyclinDi) 4° C. overnight at dilution of 1:1000 in 3% BSA, followed by washing and incubation with secondary antibody at dilution of 1:1000 in 5% non-milk Tris Buffer Saline with 0.1% Tween-20 (TBST) buffer for 1 hours at room temperature. The membranes were then washed with 1×PBS buffer for 10 minutes for 3 times and developed with ECL kit (PerkinElmer, Waltham, Mass., USA).
To this end, MDA-MB-468 cells were treated with vehicle, S3I-1756 or increasing concentration of S3I-1757 and processed for western blotting.

[2] = tested on: P-STAT3 in the nucleus of MDA-MB-468 cells; test: P-STAT3 nuclear accumulation by immunofluorescence
Experimental: MDA-MB-468 cells were plated at 4000 cells/well in 8-chamber slide. […] Cells were fixed, washed, and permeabilized as describe above. Specimens were then blocked in 1% bovine serum albumin (BSA) for 30 min and incubated with anti-pSTAT3 (Cell Signaling), antibody at 1:50 dilution at 4° C. overnight. Subsequently, cells were rinsed 4-5 times in PBS, incubated with Alexa Fluor secondary antibody for 1 hour at room temperature in the dark. Specimens were then washed 5 times with PBS, covered with cover slides with [sequence] mounting medium containing DAPI (Vector Lab, Inc., Burlingame, Calif.), and examined immediately under Zeiss Upright Fluorescence Microscope (Zeiss, Thornwood, N.Y., USA).

[3] = tested on: MDA-MB-468 cells transiently transfected with vector or STAT3C; test: STAT3-C rescue: western blotting, MTT, migration and invasion
From the text: To this end, MDA-MB-468 were transfected cells with STAT3-C, then treated the cells with S3I-1757 and processed the cells for western blotting, cell growth, migration and invasion.

[4] = tested on: MDA-MB-468, MDA-MB-231, H358, A549 cells; test: MTT assay, cells with persistently activated STAT3; conditions: 48 hours
Experimental: MTT assay was performed exactly as described by Balasis, et al., Clin. Cancer Res. 2011; 17(9):2852-2862, to determine the effects of S3I-1757 on cell proliferation. Cells were plated in a 96 well tissue culture plate (2000 cells per well) and incubated for 12 hours. After incubation the cells were treated with vehicle S3I-1757 or S3I-1756 for 48 hours. After incubation, freshly prepared MTT (3 mg/ml) in 1×PBS was added to each well and incubated for 3 hours and the plate was read at 570 nm.
Several cell lines were used, some with persistently Y705 phosphorylated STAT3 and others without (FIG. 9A). […] The effects of S3I-1757 on cancer cell anchorage-independent growth were next determined by soft-agar assay.

[5] = tested on: STAT3-DNA binding activity in MDA-MB-468 and A-549 cells; test: STAT3-DNA binding filter plate assay on nuclear extracts; conditions: 1, 2 or 4 hours
Experimental: Nuclear extract preparation was carried out as described in Yu, et al., Science 1995; 269(5220):81-83. The STAT3-DNA binding filter plate assay was performed following the manual of the filter plate assay kit (Signosis, Sunnyvale, Calif.), as described for NFkB (Ying, et al., Blood 2011; 117(4):1301-1307). The TF Binding buffer was mixed with the STAT3 probe (biotin labeled STAT3 DNA binding sequence) and nuclear extract and incubated at 16° C. for 30 minutes to form the STAT3-DNA complex. The STAT3-DNA complex was then separated from free probe by using a filter plate. After several steps of binding and washing, bound STAT3 probe is retained on the filter in the corresponding well of Filer Plate and the free DNA probe is removed. The bound pre-labeled STAT3 probe was then eluted from the filter plate by centrifuge with elution buffer. Eluted probes were then hybridized into 96-well Hybridization Plate for quantitative analysis. The captured STAT3 probe was further detected by conjugation with streptavidin-HRP. The chemiluminescence of each well was detected by 2104 EnVisionR Multilabel Reader of PerkinElmer (Pekin Elmer, Waltham, Mass., USA) within 5 minutes after mixture with substrates. […]

H460 cells = test: anchorage independent growth by soft agar assay, H460; conditions: low activated STAT3 level
Experimental: Soft agar colony formation assays were performed in 12-well plate as described in Balasis, et al., Clin. Cancer. […] Colonies were allowed to grow for 3-4 weeks, and quantified by staining with 1 mg/mL MTT (Sigma, St. Louis, Mo., USA) overnight.

[6] = molecular target: dimerization of FLAG-STAT3 and HA-STAT3 (Mus musculus, UniProt P42227); test: co-localization of FLAG-STAT3 and HA-STAT3 by immunofluorescence; conditions: HEK293 cells; 1, 2 or 4 hours
Sequence of dimerization of FLAG-STAT3 and HA-STAT3 (P42227 whole entry): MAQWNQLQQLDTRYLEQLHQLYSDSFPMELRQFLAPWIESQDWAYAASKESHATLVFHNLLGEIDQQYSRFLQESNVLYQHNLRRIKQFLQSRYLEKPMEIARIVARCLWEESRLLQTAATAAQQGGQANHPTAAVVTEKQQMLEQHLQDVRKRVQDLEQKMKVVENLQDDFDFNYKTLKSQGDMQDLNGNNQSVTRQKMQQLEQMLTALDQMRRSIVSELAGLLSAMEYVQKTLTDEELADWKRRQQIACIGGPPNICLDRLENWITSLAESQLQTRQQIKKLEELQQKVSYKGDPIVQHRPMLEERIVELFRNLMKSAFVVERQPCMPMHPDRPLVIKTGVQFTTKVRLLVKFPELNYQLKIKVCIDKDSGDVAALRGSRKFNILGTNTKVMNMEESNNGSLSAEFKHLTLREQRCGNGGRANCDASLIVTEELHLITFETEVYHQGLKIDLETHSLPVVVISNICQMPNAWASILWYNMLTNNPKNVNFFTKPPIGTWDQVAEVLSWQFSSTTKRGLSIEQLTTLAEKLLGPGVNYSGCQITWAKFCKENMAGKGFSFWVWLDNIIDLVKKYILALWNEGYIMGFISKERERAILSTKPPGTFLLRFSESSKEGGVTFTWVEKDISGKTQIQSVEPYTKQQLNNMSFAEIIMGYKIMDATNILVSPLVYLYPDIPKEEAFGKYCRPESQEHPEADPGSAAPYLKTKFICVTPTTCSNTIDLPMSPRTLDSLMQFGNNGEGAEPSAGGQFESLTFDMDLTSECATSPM
Experimental: HEK-293/FLAG-Stat3/HA-Stat3 cells were cultured (4000 cells per well) with G418 400 ug/ml in 8 well chamber slide. The cells were treated with S3I-1757 or S3I-1756 for 1 hour, 2 hours, or 4 hours. The cells were then rinsed with phosphate buffered saline (PBS), fixed with ice-cold methanol for 15 minutes, washed 3 times in PBS, permeabilized with 0.2% Triton X-100 for 15 minutes, and further washed 3-4 times with PBS. Cells were then blocked in 1% bovine serum albumin (BSA) for 30 min and incubated with anti-HA (Santa Cruz, Santa Cruz, Calif., USA) or anti-FLAG (Sigma, St. Louis, Mo., USA) primary antibody at 1:100 dilution at 4° C. overnight. Subsequently, cells were rinsed 4-5 times in PBS, incubated with Alexa fluor secondary antibody (Invitrogen, Carlsbad, Calif., USA) for 1 hour at room temperature in the dark. Cells were then washed 5 times with PBS, covered with cover slides with […] mounting medium containing DAPI (Vector Lab, Inc., Burlingame, Calif.), and examined immediately under Zeiss Upright Fluorescence Microscope (Zeiss, Thornwood, N.Y., USA).
HASTAT3/FLAG-STAT3/HEK 293 cells were treated with vehicle, S3I-1757 or S3I-1756 and the cells were processed for immunofluorescence staining for FLAG-STAT3 and HA-STAT3 and analyzed by confocal microscopy.

[7] = MDA-MB-468 transfected with STAT3-C

O=C(O)c1cc(N(Cc2ccc(C3CCCCC3)cc2)C(=O)c2ccc(Oc3ccccc3)cc2)ccc1O [Compound 20g, 5-(N-(4-Cyclohexylbenzyl)-4-phenoxybenzamido)-2-hydroxybenzoic acid]
expression of STAT3 target genes Bcl-xL, survivin, cyclin D1, MMP9 [1]: inhibited the expression of STAT3 target genes | phosphorylation of STAT3-Y705 (western blotting) [1]: inhibited the phosphorylation of STAT3-Y705 in a concentration dependent manner starting at 50 μM | selectivity of inhibition over Akt and Erk1/2 phosphorylation [1]: selective for STAT3 over Akt and Erk1/2 phosphorylation | levels of p-STAT3 in the nucleus ([2]; 2 hours and 4 hours): dramatically decreased | P-STAT3 nuclear accumulation ([2]; 18 hours, various concentrations): inhibited P-STAT3 nuclear accumulation in a concentration-dependent manner starting at 50 μM | apoptosis induction (caspase 3, PARP) ([3]; MDA-MB-468, FIG. 11A): induced activation of caspase 3 and PARP cleavage | expression levels of BclxL, cyclin D1 and survivin ([3]; MDA-MB-468, FIG. 11A): inhibited the expression levels of these proteins | down regulation of BclxL, cyclin D1, survivin and apoptosis with ectopic STAT3-C [3, 7]: ectopic expression of STAT3-C inhibited the ability of S3I-1757 to down regulate | inhibition of migration and invasion, STAT3-C-transfected cells [3, 7]: partially rescued | proliferation/survival by MTT with STAT3-C ([3]; MDA-MB-468 transfected with STAT3-C, FIG. 11B): STAT3-C inhibited S3I-1757 from inhibiting the proliferation/survival | migration and invasion, vector-transfected cells ([3]; MDA-MB-468 transfected with vector DNA): inhibited the migration and invasion | anchorage-dependent proliferation by MTT, cells that harbor persistently activated STAT3 [4]: inhibited in a dose dependent manner | activated STAT3 in nuclear extracts capable of binding the STAT3 DNA binding probe [5]: contained less activated STAT3 capable of binding the STAT3 DNA binding probe | anchorage-independent growth (soft agar), H460 (H460 cells): little effect | co-localization of FLAG-STAT3 and HA-STAT3 (yellow color) [6]: progressively less yellow color over time
